{
  "source": "patent US7880014B2",
  "about": "“Angiotensin II receptor antagonists” (Merck Sharp & Dohme Corp., priority 2006, dated 2011)",
  "key": {"CYP3A4": {"molecular_target": "T1, CYP3A4 (Homo sapiens, UniProt P08684)", "T1 construct": "Pooled human liver microsomes (1 mg/mL) were preincubated at 37° C; from tissue; host or cells: pooled human liver microsomes", "T1 sequence (P08684 whole entry)": "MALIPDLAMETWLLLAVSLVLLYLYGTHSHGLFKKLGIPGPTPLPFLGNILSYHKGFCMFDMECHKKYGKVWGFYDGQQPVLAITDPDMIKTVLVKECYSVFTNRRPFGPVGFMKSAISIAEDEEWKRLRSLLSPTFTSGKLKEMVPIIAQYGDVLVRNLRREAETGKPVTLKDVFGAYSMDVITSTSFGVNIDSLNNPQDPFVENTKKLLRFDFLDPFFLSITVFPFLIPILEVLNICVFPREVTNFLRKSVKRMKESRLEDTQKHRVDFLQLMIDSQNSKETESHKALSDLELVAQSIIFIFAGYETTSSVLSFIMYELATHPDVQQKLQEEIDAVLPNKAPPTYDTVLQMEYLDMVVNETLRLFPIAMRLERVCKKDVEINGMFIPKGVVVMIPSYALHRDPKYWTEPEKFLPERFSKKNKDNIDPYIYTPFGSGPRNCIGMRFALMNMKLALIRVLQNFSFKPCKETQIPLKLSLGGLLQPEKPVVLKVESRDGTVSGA", "assay": "CYP3A4 Time-Dependent Inhibition Assay (pooled human liver microsomes, testosterone 6β-hydroxylation)", "format": "in vitro ADME", "details": "human liver microsomes 1 mg/mL, preincubation 5 to 30 min", "procedure": "The incubation mixtures were diluted 10-fold with the same buffer containing 250 μM testosterone and an NADPH-generating system. The incubation was continued for an additional 10 min to monitor the extent of testosterone 6β-hydroxylation. The first order rate constants (kobs) for inactivation at 10 and 50 μM were calculated from the negative slope of the lines by linear regression analysis of the natural logarithm of the remaining activity as a function of time using KaleidaGraph Synergy Software (Reading, Pa.)."}, "rabbit aortic slices": {"tested_on": "rabbit aortic slices", "assay": "vessel relaxation assay (in vitro, tissue-based, rabbit aortic slices)", "format": "cell-based"}},
  "data": [
    {"smiles": "CCCCc1nc(Cl)c(C(=O)OC(C)OC(=O)OCCCC[C@H](CO[N+](=O)[O-])O[N+](=O)[O-])n1Cc1ccc(-c2ccccc2-c2nnn[nH]2)cc1", "note": "(single isomer, unassigned) [Compound 2]", "values": [
      {"measurement": "Rate Constant (kobs) at 10 μM", "setting": "CYP3A4", "result": 0.026, "unit": "min⁻¹"},
      {"measurement": "Rate Constant (kobs) at 50 μM", "setting": "CYP3A4", "result": 0.037, "unit": "min⁻¹"}
    ]},
    {"smiles": "CCCCc1nc(Cl)c(C(=O)OC(C)OC(=O)OCCCC[C@H](CO[N+](=O)[O-])O[N+](=O)[O-])n1Cc1ccc(-c2ccccc2-c2nnn[nH]2)cc1", "note": "(single isomer, unassigned) [Compound 3]", "values": [
      {"measurement": "Rate Constant (kobs) at 10 μM", "setting": "CYP3A4", "result": "~0.077", "unit": "min⁻¹"},
      {"measurement": "Rate Constant (kobs) at 50 μM", "setting": "CYP3A4", "result": 0.076, "unit": "min⁻¹"},
      {"measurement": "EC50", "setting": "rabbit aortic slices", "result": 1.3, "unit": "µM"}
    ]}
  ]
}
